Results reported in US10000525B2, “Non-hormonal steroid modulators of NF-κB for treatment of disease” (ReveraGen Biopharma, Inc, priority 2010, dated 2018).

Tests used:
[1] = system: extensor digitorum longus (EDL) muscle; assay: mdx mouse model: in vitro force contractions of EDL muscle; format: in vivo; conditions: mdx mice, prednisolone 5 mg/kg/day per oral in feed, 3 months
Protocol: (§1) Separate groups (n=12-14) of mdx mice were treated with prednisolone (5 mg/kg/day; per oral in feed), Example 1 (20 and 40 mg/kg/day; per oral in feed) and Example 2 (20 and 40 mg/kg/day; per oral in feed) for 3 months. All mice underwent 30 min biweekly treadmill exercise during the treatment duration to unmask the mild disease phenotype of mdx mouse model.
The distal tendon of the extensor digitorum longus (EDL) muscle was tied securely to the lever arm of a servomotor/force transducer (model 305B, Aurora Scientific, Richmond Hill, ON, Canada) and the proximal tendon to a tissue clamp. Muscles were stimulated between two platinum electrodes. […] With the muscle held at Lo using stimulation frequencies of 30, 50, 80, 100, 120 and 150 Hz, the maximum isometric tetanic force (Po) developed during a 300 ms train of stimulation pulses was recorded for the EDL muscle. The muscle length was then measured with calipers and after removal of the muscle from the bath the mass of the muscle was determined. For each muscle, the optimum fiber length (Lf) was calculated by multiplying Lo by a previously determined Lf/Lo ratio of 0.45. […]

mdx mice [2] = assay: In vivo mdx mouse model of dystrophy: body weight and muscle mass; conditions: 5 mg/kg/day per oral in feed, at 33.8 weeks age
Protocol: as §1

mdx mice [3] = assay: mdx mouse model: histological evaluation (H&E) of gastrocnemius muscle; format: in vivo; conditions: for degeneration of skeletal muscle (H&E) / inflammation of skeletal muscle (H&E) / regenerating muscle fibers (H&E): 20 and 40 mg/kg/day per oral in feed, 3 months, in comparison to untreated and prednisolone treated mdx mice
Protocol: as §1
Hematoxylin and Eosin staining of gastrocnemius muscle of untreated mdx mice show significant degeneration and inflammation. […] Continuous administration of prednisolone appeared to increase degeneration and decrease in regeneration of dystrophic skeletal muscle.

[4] = continuous administration, 5 mg/kg/day per oral in feed

SMILES | specific force of EDL muscle, versus untreated group [1] | body weight versus untreated mice (mdx mice [2]) | degeneration of dystrophic skeletal muscle (H&E) (mdx mice [3]; [4]) | regeneration of dystrophic skeletal muscle (H&E) (mdx mice [3]; [4]) | degeneration of skeletal muscle (H&E) (mdx mice [3]) | inflammation of skeletal muscle (H&E) (mdx mice [3]) | regenerating muscle fibers (H&E) (mdx mice [3])
C[C@]12C=CC(=O)C=C1CC[C@@H]1[C@@H]2[C@@H](O)C[C@@]2(C)[C@H]1CC[C@]2(O)C(=O)CO [Prednisolone, reference compound] | no statistically significant (P<0.05) difference | significantly lower body weight | increase | decrease |  |  | 
C[C@]12C=CC(=O)C=C1CCC1C2=CC[C@@]2(C)C1CC[C@]2(O)C(=O)CO (stereo partly drawn) [Example 2, (10S,13S,17R)-17-hydroxy-17-(2-hydroxyacetyl)-10,13-dimethyl-6,7,8,10,12,13,14,15,16,17-decahydro-3H-cyclopenta[a]phenanthren-3-one] |  |  |  |  | significant decrease | significant decrease | increase
C[C@]12CCC(=O)C=C1CCC1C2=CC[C@@]2(C)C1CC[C@]2(O)C(=O)CO (stereo partly drawn) [Example 1, (10S,13S,17R)-17-hydroxy-17-(2-hydroxyacetyl)-10,13-dimethyl-6,7,8,10,12,13,14,15,16,17-decahydro-1H-cyclopenta[a]phenanthren-3(2H)-one] |  |  |  |  | significant decrease | significant decrease | increase
